In one data set the test system is Staphylococcus aureus. The data set is described as follows: In vitro antimicrobial zone of inhibition study. Format: cell-based. The method, then:
API-stability experiments were carried out (see tables 4-14) using the product of the present invention and products currently commercially available. Tests were carried out to observe (or measure as appropriate) the physical appearance of the product, the pH value and assay of the API over a period of time. Tests were also carried out to assess the stability by subjecting the product to stress studies such as autoclave test and oxydative degradation test. Further, in vitro antimicrobial zone of inhibition studies were also carried out over a period of time. […] The antimicrobial/antibacterial activity of the product is confirmed by the in vitro Antimicrobial Zone of Inhibition studies for the product against Staphylococcus aureus. The details of the studies are detailed below in Table 15.

The nature of data set [1]: Stability of raw API after 3 months in open and closed Petri dish, stability-indicating HPLC method and titration method. Format: physicochemical. Particulars: for Percentage Drop (%) HPLC: after 3 months; for *Initial (%): assay at the time of receipt of the API from the supplier. The method, then:
Degradation due to oxidation is a major cause of instability of currently available Fusidic acid creams. […] It can be observed from Tables 1 and 2 that: • In the case of Fusidic Acid, there is about 7.7% loss in 3 Months at room temperature (open condition) and about 11% loss in 3 Months at 45° C. […] (open condition).

For `CC1(C)S[C@@H]2[C@H](NC(=O)Cc3ccccc3)C(=O)N2[C@H]1C(=O)O` [Penicillin G], in the data set with Staphylococcus aureus (dose 10 Units), the Inference entry is listed as “Resistant” and the “Zone Diameter Range (mm)” value is 21-27 mm.

Take `CC(=O)O[C@H]1C[C@@]2(C)[C@@H](C[C@@H](O)[C@H]3[C@@]4(C)CC[C@@H](O)[C@@H](C)[C@@H]4CC[C@@]32C)/C1=C(\CCC=C(C)C)C(=O)O` [Fusidic acid]: the “Percentage Drop (%) HPLC” value is “about 11%” in data set [1] (45° C. (Open) Petri dish) and “about 7.7%” in data set [1] (RT (Open) Petri dish). The “*Initial (%)” value in data set [1] (listed as FUSIDIC ACID BP) was 100.6%. The Inference entry in the data set on Staphylococcus aureus (dose 10 mcg), with Staphylococcus aureus (dose 20 mcg) and with Staphylococcus aureus (dose 50 mcg) was “Sensitive” in each case. Also, the results for the “Zone Diameter Range (mm)” value in the data set with Staphylococcus aureus (dose 10 mcg), with Staphylococcus aureus (dose 20 mcg) and in the data set with Staphylococcus aureus (dose 50 mcg) were 21-33 mm, 20-30 mm and 25-32 mm, respectively.

`CC(=O)O[C@H]1C[C@@]2(C)[C@@H](C[C@@H](O)[C@H]3[C@@]4(C)CC[C@@H](O)[C@@H](C)[C@@H]4CC[C@@]32C)/C1=C(\CCC=C(C)C)C(=O)O` [Sodium Fusidate]: the “Percentage Drop (%) HPLC” value in data set [1] (45° C. (Open) Petri dish) was “about 6%”; in data set [1] (RT (Open) Petri dish) it was “about 2.5%”. Besides, the “stability as an API (comparison)” value in data set [1] (Sodium Fusidate versus Fusidic acid, Tables 1 and 2) was “more stable than Fusidic acid”. For the same molecule, the “*Initial (%)” value in data set [1] (listed as Sodium Fusidate BP) was 98.7%.

(Values after patent publication US20110257144A1 (APEX LABORATORIES PRIVATE LIMITED, priority 2008, published 2011).)
